Source: article PMC6382696, “Drug Repurposing: The Anthelmintics Niclosamide and Nitazoxanide Are Potent TMEM16A Antagonists That Fully Bronchodilate Airways” (Frontiers in Pharmacology, 2019)
“Also recorded” adds a separate entry of the source.

Assays:
COLO205 cells = experiment: QPatch electrophysiology of endogenous calcium-activated chloride current in COLO205 cells; format: cell-based, human; settings: 170 nM free calcium
Excerpt: HEK293 cells stably expressing the TMEM16A (acd) variant were purchased from SB Drug Discovery. The HEK293 TMEM16A (abc) stable cell line was from ChanTest and COLO-205 cells were purchased from ATCC. The same standard buffers and recording conditions listed below were used for QPatch studies on all three cell lines.
Recording Solutions: were made weekly as below and stored at room temperature until used. It is recommended not to add ATP to internal solution until immediately before using on the QPatch. The external buffer (in mM) was 140 NaCl, 4 KCl, 2 CaCl2, 1 MgCl2, 10 HEPES, 10 Glucose, pH7.4, while the internal buffer (in mM) was 110 CsCl, 20 TEA-Cl, 5.374 CaCl2, 1.75 MgCl2, 10 EGTA, 10 HEPES, 4 Na2ATP, pH 7.2.
Once established in whole-cell configuration, cells were clamped to a holding potential (Vhold) of 0 mV on 48 well single hole patch plate. A standardized IV protocol was used to elicit ionic current through the TMEM16A chloride channel at 20 s intervals. Steady-state voltage pulses were from −100 mV to +100 mV in +20 mV steps for a duration of 500 ms. After each pulse the voltage was returned to −100 mV for 50 ms to obtain tail currents, and then returned to the holding potential of 0 mV until the beginning of the next sweep. Block of TMEM16A chloride current due to test article was measured at the +100 mV depolarization sweep of the third and final IV protocol run per concentration addition. This ensures a minimum of 60 s per concentration incubation before measuring current block. Currents were acquired at 10 kHz and filtered at 2 kHz, leak subtraction and Rseries were disabled. […]
A cumulative concentration response was measured where each cell is exposed to five concentrations of test article with a dilution factor of 1:5 (e.g., 0.048, 0.24, 1.2, 6, and 30 μM). Cells were recorded for ∼60 s per solution/compound addition. […] Recovery/washout was monitored for a final minute with a final external solution addition.
Peak outward current magnitude at 540 ms through 550 ms of the IV step was measured for each sweep at […]. […]

mouse airway rings = experiment: Duration of bronchodilation after washout and carbachol re-challenge, mouse airway rings; settings: EC75 carbachol, preliminary
Procedure: Mouse airway rings were exposed to a typical Wake-Up procedure including the use of KPSS and discovery of EC75 CCh dose responses. However, no isoproterenol was used to observe tissue relaxation as part of the qualification procedure. With pre-contraction with EC75 CCh for >30 min, rings were subjected to a compound dose-response, followed by a complete washout of compound, and re-contracted with EC75 CCh. Traces were recorded for several hours thereafter and normalized to theophylline as control of 100% relaxation.

mouse tracheal rings [1] = experiment: Bronchodilation of cytokine-treated mouse tracheal rings; settings: overnight IL-1β, TNFα, IL-13 100 ng/ml, EC75 carbachol
Procedure: Airway rings were treated overnight in 2 ml DMEM + PSG/HEPES/AA/NaPyr buffer alone or with the same solution supplemented with 100 ng/ml of mTNFα, mIL-13 and mIL-1β. Unlike like the typical Wake-Up protocol and ring qualifying tests, mouse tracheal rings were not exposed to KPSS and rings were not observed to relax with a β-agonist following discovery of CCh dose-responses. After several washes with PSS, EC75 concentrations of CCh were used to pre-contract rings for >30 min alone or in the presence of cytokines.

primary human ASM cells = experiment: Methacholine-induced calcium flux in primary human ASM cells; format: cell-based; settings: methacholine 10 M (so in the source), read-out: IC50 block of methacholine calcium flux
Procedure: 1.1 Measuring antagonist effects on bronchial smooth muscle cell (BSMC) pro-contractile calcium flux.
Human BSMCs were obtained from Lonza, resuspended, cultured and serum starved for 24 hours as described for the histamine membrane potential assay. Compounds and dilutions were prepared in same manner, except they were serially diluted in Assay Buffer (2 mM CaCl2, 1 mM MgCl2, 4.5 mM KCl, 155 mM NaCl, 5 mM HEPES, 10 mM glucose, pH7.4) to 4X the final concentration. A Calcium Indicator Working Solution (10 ml) was prepared by adding 1ml BD PBX Signal Enhancer (Cat# 51 -9006254) and 10 µl of BD Calcium Indicator (BD Cat# 850000 resuspended in 100% DMSO) to 9 ml Assay Buffer. Following serum starvation of the BSMCs, culture media was aspirated off and 50µl of Calcium Indicator Working Solution was added t o each well of microtiter plate. Twenty-five microliters of the 4X serially diluted compounds were then added and cells were incubated with compounds for 30 minutes at room temperature. Twenty -five microliters of a 4X histamine or methacholine solution (where 1X reflects EC 80-EC100 concentration from earlier validation of aliquot of cells from same donor) was then added and fluorescence changes were measured by a FLIPR-Tetra or internal FlashFluor instrument. In some experiments the TMEM16A opener, Eact, was used in place of histamine or methacholine.

mouse tracheal rings [2] = experiment: β-agonist use-dependent desensitization of mouse tracheal rings; settings: add-on after isoproterenol round 2
Excerpt: Standard procedures were used to prepare and mount tissues.

[3] = system: Wnt/β-catenin transcription; experiment: Wnt/β-catenin transcription TOPFlash reporter assay; format: cell-based; settings: Wnt TopFlash IC50 over TMEM16A eYFP IC50
HT29 = system: HT29; set-up: method as in Li et al., 2014; settings: ref Li et al., 2014, read-out: IC50 inhibition of proliferation; cited from earlier work
COLO205 = system: COLO205; set-up: method as in Li et al., 2014; settings: ref Li et al., 2014, read-out: IC50 inhibition of proliferation; cited from earlier work

N#Cc1c(C(F)(F)F)cc(O)n2c1nc1ccccc12 [1PBC]
block of native chloride current in COLO205 cells (COLO205 cells): fully blocked

CCc1oc2ccccc2c1C(=O)c1cc(Br)c(O)c(Br)c1 [Benzbromarone]
duration of bronchodilation after washout and re-challenge (mouse airway rings): long lasting; also recorded: sustained bronchodilation lasting several hours
bronchodilation of cytokine-treated airways (mouse tracheal rings [1]): fully bronchodilated
block of native chloride current in COLO205 cells (COLO205 cells): fully blocked
IC50 (primary human ASM cells): 7 µM

CC(C)(C)C1CCc2c(sc(NC(=O)c3ccco3)c2C(=O)O)C1 (stereo not shown) [CaCCinh-A01]
block of native chloride current in COLO205 cells (COLO205 cells): fully blocked
IC50 (primary human ASM cells): 50 µM

COc1cc([N+](=O)[O-])ccc1NC(=O)c1cc(Cl)c2ccccc2c1O [Cpd 4]
% relaxation after add-on to desensitized ring (mouse tracheal rings [2]; EC50 carbachol): 98.9%
% relaxation after add-on to desensitized ring (mouse tracheal rings [2]; EC75 carbachol): 95.4%

O=C(Nc1ccc(Cl)cc1)c1cc(Cl)ccc1O [Cpd 5]
IC50 Ratio, Wnt/TMEM16A [3]: 3.51

Oc1ccc(Cl)cc1Cc1cc(Cl)ccc1O [Dichlorophen]
IC50 (primary human ASM cells): 106 µM

O=C(Nc1ccc([N+](=O)[O-])cc1Cl)c1cc(Cl)ccc1O [Niclosamide]
duration of bronchodilation after washout and re-challenge (mouse airway rings): long lasting; also recorded: sustained bronchodilation lasting several hours
bronchodilation of cytokine-treated airways (mouse tracheal rings [1]): fully bronchodilated
IC50 (HT29): 4.17 µM
IC50 (COLO205): 0.98 µM
IC50 Ratio, Wnt/TMEM16A [3]: 2.62
